pEC50: −log10 of the molar value.
Columns and labels:
[1] = Effective concentration of Amphotericin required for hemolytic activity against 1% human erythrocytes; assay type: functional
[2] = system: Aspergillus niger; experiment: Inhibitory effect of Amphotericin required for antifungal activity against Aspergillus niger; assay type: functional

C[C@@H]1[C@H](O)[C@@H](C)/C=C/C=C/C=C/C=C/C=C/C=C/C=C/[C@H](O[C@@H]2O[C@H](C)[C@@H](O)[C@H](N)[C@@H]2O)C[C@@H]2O[C@](O)(C[C@@H](O)C[C@@H](O)[C@H](O)CC[C@@H](O)C[C@@H](O)CC(=O)O[C@H]1C)C[C@H](O)[C@H]2C(=O)O [AMPHOTERICIN B]
pEC50 [1]: 5.85
Activity [2]: 10 µg

CC1OC(O[C@H]2/C=C/C=C/C=C/C=C/C=C/C=C/C=C/[C@H](C)[C@@H](O)[C@@H](C)[C@H](C)OC(=O)C[C@H](O)C[C@H](O)CC[C@@H](O)[C@H](O)C[C@H](O)C[C@@]3(O)O[C@@H](C2)[C@H](C(=O)O)[C@@H](O)[C@@H]3F)C(O)C(N)C1O (stereo partly specified)
pEC50 [1]: 5.89
Activity [2]: 10 µg

CC1OC(O[C@H]2/C=C/C=C/C=C/C=C/C=C/C=C/C=C/[C@H](C)[C@@H](O)[C@@H](C)[C@H](C)OC(=O)C[C@H](O)C[C@H](O)CC[C@@H](O)[C@H](O)C[C@H](O)C[C@]3(O)C[C@H](O)[C@@H](C(=O)O)[C@H](C2)O3)C(O)C(NCc2ccc(F)cc2)C1O (stereo partly specified)
pEC50 [1]: 5.59
Activity [2]: >50 µg

Reference: ChEMBL document CHEMBL1142753, “Bioactive fluorinated derivative of amphotericin B” (Bioorg Med Chem Lett, 2005)
